These compounds were tested against human α2δ-1 subunit of Cav2.2 calcium channel (Homo sapiens (Human), UniProt P54289) (assay: Binding assay to human α2δ-1 subunit of Cav2.2 calcium channel ([3H]-Gabapentin)). Conditions: Table 2, dual compounds; [3H]-Gabapentin binding; read-out: Ki (nM) α2δ-1.
How it was run: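 Radioactivity on dried GF/C filters quantified by scintillation after filtration and three cold Tris-HCl (pH 7.4) washes. Incubation ran 60 min at 27° C with [3H]-gabapentin; 10 μM pregabalin gave nonspecific binding.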

Sequence of human α2δ-1 subunit of Cav2.2 calcium channel (P54289 25-1103): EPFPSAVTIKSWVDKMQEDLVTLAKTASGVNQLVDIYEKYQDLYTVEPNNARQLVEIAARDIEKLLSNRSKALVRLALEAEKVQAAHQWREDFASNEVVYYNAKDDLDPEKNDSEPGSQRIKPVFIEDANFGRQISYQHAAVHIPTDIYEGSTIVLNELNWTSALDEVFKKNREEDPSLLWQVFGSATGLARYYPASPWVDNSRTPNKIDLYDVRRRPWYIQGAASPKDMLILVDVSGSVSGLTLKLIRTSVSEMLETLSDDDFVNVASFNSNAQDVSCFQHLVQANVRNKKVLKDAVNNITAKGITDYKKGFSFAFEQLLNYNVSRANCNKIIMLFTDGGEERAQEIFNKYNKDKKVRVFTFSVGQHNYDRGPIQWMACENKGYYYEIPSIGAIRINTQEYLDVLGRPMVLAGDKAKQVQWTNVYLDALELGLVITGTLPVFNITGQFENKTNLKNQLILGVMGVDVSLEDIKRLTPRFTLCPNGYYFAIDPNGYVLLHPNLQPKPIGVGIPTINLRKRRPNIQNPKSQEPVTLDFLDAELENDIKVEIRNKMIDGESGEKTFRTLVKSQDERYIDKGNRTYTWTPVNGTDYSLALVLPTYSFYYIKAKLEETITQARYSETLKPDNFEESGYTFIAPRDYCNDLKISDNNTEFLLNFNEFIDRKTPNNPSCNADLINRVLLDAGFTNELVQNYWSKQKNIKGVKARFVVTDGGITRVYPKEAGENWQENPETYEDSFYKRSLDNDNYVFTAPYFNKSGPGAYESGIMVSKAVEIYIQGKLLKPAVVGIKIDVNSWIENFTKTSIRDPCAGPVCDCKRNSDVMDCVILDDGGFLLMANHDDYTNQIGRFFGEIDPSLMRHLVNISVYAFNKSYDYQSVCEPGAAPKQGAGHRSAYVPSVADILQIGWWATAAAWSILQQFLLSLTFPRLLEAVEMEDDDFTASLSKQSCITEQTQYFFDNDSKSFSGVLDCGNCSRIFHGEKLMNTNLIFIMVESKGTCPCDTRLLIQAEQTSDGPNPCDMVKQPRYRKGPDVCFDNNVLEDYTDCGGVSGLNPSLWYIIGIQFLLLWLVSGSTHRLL

For `CCNc1ncc2c(n1)N(C)CCN(c1cccc(COC(CCNC)c3cccs3)c1)C2=O` (stereo not drawn) [Example 211, 2-(ethylamino)-9-methyl-6-(3-((3-(methylamino)-1-(thiophen-2-yl)propoxy)methyl)phenyl)-6,7,8,9-tetrahydro-5H-pyrimido[4,5-e][1,4]diazepin-5-one], the Ki was 100 to 500 nM.

Same assay, conditions: binding to α2δ-1, [3H]-Gabapentin; read-out: Ki (nM) α2δ-1

`CCNc1ncc2c(n1)N(C)CCN(c1cccc(-n3cc(CN(C)C(=O)OC(C)(C)C)cn3)c1)C2=O` [Example 122, tert-butyl ((1-(3-(2-(ethylamino)-9-methyl-5-oxo-5,7,8,9-tetrahydro-6H-pyrimido[4,5-e][1,4]diazepin-6-yl)phenyl)-1H-pyrazol-4-yl)methyl)(methyl) carbamate] and `CCNc1ncc2c(n1)N(C)CCN(c1cccc(C3CCN(C(=O)OC(C)(C)C)CC3)c1)C2=O` [Example 234, tert-Butyl 4-(3-(2-(ethylamino)-9-methyl-5-oxo-5,7,8,9-tetrahydro-6H-pyrimido[4,5-e][1,4]diazepin-6-yl)phenyl)piperidine-1-carboxylate] cannot be ordered by Ki: greater than 3000 nM for the first, greater than 3000 nM for the second.

`CSc1ncc2c(n1)N(C)CCN(c1cccc(-n3cc(CN(Cc4ccccc4)C(=O)OC(C)(C)C)nn3)c1)C2=O` [Example 41, tert-butyl benzyl((1-(3 (9-methyl-2-(methylthio)-5-oxo-5,7,8,9-tetrahydro-6H pyrimido[4,5-e][1,4]diazepin-6-yl)phenyl)-1H-1,2,3-triazol-4-yl)methyl) carbamate] and `CSc1ncc2c(n1)N(C)CCN(c1cccc(CO[C@H](CCN(C)C(=O)OC(C)(C)C)c3ccccc3)c1)C2=O` [Example 10, tert-butyl (R)-methyl(3-((3-(9-methyl-2-(methylthio)-5-oxo-5,7,8,9-tetrahydro-6H-pyrimido[4,5-e][1,4]diazepin-6-yl)benzyl)oxy)-3-phenylpropyl) carbamate] cannot be ordered by Ki: greater than 3000 nM for the first, greater than 3000 nM for the second.

`CNCC(Oc1ccccc1N1CCN(C)c2ncncc2C1=O)c1ccccc1` (stereo not drawn) [Example 362, 9-methyl-6-(2-(2-(methylamino)-1-phenylethoxy)phenyl)-6,7,8,9-tetrahydro-5H-pyrimido[4,5-e][1,4]diazepin-5-one] and `CNCCC(Oc1ccc(N2CCN(C)c3ncncc3C2=O)cc1)c1ccccc1` (stereo not drawn) [Example 361, 9-methyl-6-(4-(3-(methylamino)-1-phenylpropoxy)phenyl)-6,7,8,9-tetrahydro-5H-pyrimido[4,5-e][1,4]diazepin-5-one] cannot be ordered by Ki: greater than 3000 nM for the first, greater than 3000 nM for the second.

`CCNc1ncc2c(n1)N(C)CCN(Cc1cccc(OC(CN(C)C(=O)OC(C)(C)C)c3ccccc3)c1)C2=O` (stereo not drawn) [Example 135, tert-butyl (2-(3-((2-(ethylamino)-9-methyl-5-oxo-5,7,8,9-tetrahydro-6H-pyrimido[4,5-e][1,4]diazepin-6-yl)methyl)phenoxy)-2-phenylethyl)(methyl) carbamate] and `CNc1ncc2c(n1)N(C)CCN(c1cccc(CO[C@H](CCN(C)C(=O)OC(C)(C)C)c3ccccc3)c1)C2=O` [Example 132, tert-butyl (R)-methyl(3-((3-(9-methyl-2-(methylamino)-5-oxo-5,7,8,9-tetrahydro-6H-pyrimido[4,5-e][1,4]diazepin-6-yl)benzyl)oxy)-3-phenylpropyl)carbamate] cannot be ordered by Ki: greater than 3000 nM for the first, greater than 3000 nM for the second.

`CCNc1ncc2c(n1)N(C)CCN(c1ccc(OC)cc1)C2=O` [Example 114, 2-(ethylamino)-6-(4-methoxyphenyl)-9-methyl-6,7,8,9-tetrahydro-5H-pyrimido[4,5-e][1,4]diazepin-5-one] and `CCNc1ncc2c(n1)N(C)CCN(c1ccc(O)cc1)C2=O` [Example 178, 2-(ethylamino)-6-(4-hydroxyphenyl)-9-methyl-6,7,8,9-tetrahydro-5H-pyrimido[4,5-e][1,4]diazepin-5-one] cannot be ordered by Ki: greater than 3000 nM for the first, greater than 3000 nM for the second.

`CCNc1ncc2c(n1)N(C)CCN(c1cccc(COC3(c4ccccc4)CCN(C(=O)OC(C)(C)C)CC3)c1)C2=O` [Example 96, tert-butyl 4-((3-(2-(ethylamino)-9-methyl-5-oxo-5,7,8,9-tetrahydro-6H-pyrimido[4,5-e][1,4]diazepin-6-yl)benzyl)oxy)-4-phenylpiperidine-1-carboxylate] and `CCNc1ncc2c(n1)N(C)CCN(c1cccc(COC(CN(C)C(=O)OCC[Si](C)(C)C)c3ccccc3)c1)C2=O` (stereo not drawn) [Example 87, 2-(trimethylsilyl)ethyl (2-((3-(2-(ethylamino)-9-methyl-5-oxo-5,7,8,9-tetrahydro-6H-pyrimido[4,5-e][1,4]diazepin-6-yl)benzyl)oxy)-2-phenylethyl)(methyl) carbamate] cannot be ordered by Ki: greater than 3000 nM for the first, greater than 3000 nM for the second.

Going from `CCNc1ncc2c(n1)N(C)CCN(c1cccc(-c3nnc(C)o3)c1)C2=O` [Example 97, 2-(ethylamino)-9-methyl-6-(3-(5-methyl-1,3,4-oxadiazol-2-yl)phenyl)-6,7,8,9-tetrahydro-5H-pyrimido[4,5-e][1,4]diazepin-5-one] to `Cc1nnc(-c2cccc(N3CCN(C)c4nc(NCc5ccccc5)ncc4C3=O)c2)o1` [Example 102, 2-(benzylamino)-9-methyl-6-(3-(5-methyl-1,3,4-oxadiazol-2-yl)phenyl)-6,7,8,9-tetrahydro-5H-pyrimido[4,5-e][1,4]diazepin-5-one], the Ki rises from less than 100 nM to greater than 3000 nM.

`CCNc1ncc2c(n1)N(C)CCN(c1cccc(CCN(C)CCc3ccccc3)c1)C2=O` [Example 270, 2-(ethylamino)-9-methyl-6-(3-(2-(methyl(phenethyl)amino)ethyl)phenyl)-6,7,8,9-tetrahydro-5H-pyrimido[4,5-e][1,4]diazepin-5-one] and `CCNc1ncc2c(n1)N(C)CCN(c1cccc(CCNC)c1)C2=O` [Example 172, 2-(ethylamino)-9-methyl-6-(3-(2-(methylamino)ethyl)phenyl)-6,7,8,9-tetrahydro-5H-pyrimido[4,5-e][1,4]diazepin-5-one] fall in the same range of Ki: 100 to 500 nM for the first, 100 to 500 nM for the second.

Compared with `CCNc1ncc2c(n1)N(C)CCN(c1cccc(-c3nnc(C)o3)c1)C2` [Example 66, N-ethyl-9-methyl-6-(3-(5-methyl-1,3,4-oxadiazol-2-yl)phenyl)-6,7,8,9-tetrahydro-5H-pyrimido[4,5-e][1,4]diazepin-2-amine], `CCNc1ncc2c(n1)N(C)CCN(Cc1ccc(OC)cc1)C2` [Example 68, N-ethyl-6-(4-methoxybenzyl)-9-methyl-6,7,8,9-tetrahydro-5H-pyrimido[4,5-e][1,4]diazepin-2-amine] is higher in Ki: 500 to 3000 nM for the first, greater than 3000 nM for the second. The first binds more tightly here.

`CNCCC(OCc1ccccc1CN1CCN(C)c2nc(C)ncc2C1=O)c1ccccc1` (stereo not drawn) [Example 421, 2,9-dimethyl-6-(2-((3-(methylamino)-1-phenylpropoxy)methyl)benzyl)-6,7,8,9-tetrahydro-5H-pyrimido[4,5-e][1,4]diazepin-5-one] and `CCNc1ncc2c(n1)N(C)CCN(Cc1ccccc1COC(CCNC)c1ccccc1)C2=O` (stereo not drawn) [Example 404, 2-(ethylamino)-9-methyl-6-(2-((3-(methylamino)-1-phenylpropoxy)methyl)benzyl)-6,7,8,9-tetrahydro-5H-pyrimido[4,5-e][1,4]diazepin-5-one] cannot be ordered by Ki: greater than 3000 nM for the first, greater than 3000 nM for the second.

`CCNc1ncc2c(n1)N(C)CCN(c1cccc(COC(CCNC)c3cccs3)c1)C2=O` (stereo not drawn) [Example 211, 2-(ethylamino)-9-methyl-6-(3-((3-(methylamino)-1-(thiophen-2-yl)propoxy)methyl)phenyl)-6,7,8,9-tetrahydro-5H-pyrimido[4,5-e][1,4]diazepin-5-one] and `CCNc1ncc2c(n1)N(C)CCN(c1cccc(OCCCNC)c1)C2=O` [Example 168, 2-(ethylamino)-9-methyl-6-(3-(3-(methylamino)propoxy)phenyl)-6,7,8,9-tetrahydro-5H-pyrimido[4,5-e][1,4]diazepin-5-one] fall in the same range of Ki: 100 to 500 nM for the first, 100 to 500 nM for the second.

`CNCCC(Oc1ccc(CN2CCN(C)c3nc(OC)ncc3C2=O)cc1)c1nccs1` (stereo not drawn) [Example 390, 2-methoxy-9-methyl-6-(4-(3-(methylamino)-1-(thiazol-2-yl)propoxy)benzyl)-6,7,8,9-tetrahydro-5H-pyrimido[4,5-e][1,4]diazepin-5-one] and `CNCC[C@H](Oc1ccc(CN2CCN(C)c3c(F)cncc3C2=O)cc1)c1cccs1` [Example 399, (S)-9-fluoro-1-methyl-4-(4-(3-(methylamino)-1-(thiophen-2-yl)propoxy)benzyl)-1,2,3,4-tetrahydro-5H-pyrido[4,3-e][1,4]diazepin-5-one] fall in the same range of Ki: 100 to 500 nM for the first, 100 to 500 nM for the second.

`CSc1ncc2c(n1)N(C)CCN(c1cccc(CCCN(C)C(=O)OC(C)(C)C)c1)C2=O` [Example 23, tert-butyl methyl(3-(3-(9-methyl-2-(methylthio)-5-oxo-5,7,8,9-tetrahydro-6H-pyrimido[4,5-e][1,4]diazepin-6-yl)phenyl)propyl) carbamate] and `CSc1ncc2c(n1)N(C)CCN(c1cccc(CO[C@@H](CCN(C)C(=O)OC(C)(C)C)c3cccs3)c1)C2=O` [Example 17, tert-butyl (S)-methyl(3-((3-(9-methyl-2-(methylthio)-5-oxo-5,7,8,9-tetrahydro-6H-pyrimido[4,5-e][1,4]diazepin-6-yl)benzyl)oxy)-3-(thiophen-2-yl)propyl) carbamate] cannot be ordered by Ki: greater than 3000 nM for the first, greater than 3000 nM for the second.

Compared with `CCNc1ncc2c(n1)N(C)CCN(c1cccc(CCN3CCC4(CC3)CN(C(C)C)C(=O)[C@@H](C)O4)c1)C2=O` [Example 276, (R)-9-(3-(2-(ethylamino)-9-methyl-5-oxo-5,7,8,9-tetrahydro-6H-pyrimido[4,5-e][1,4]diazepin-6-yl)phenethyl)-4-isopropyl-2-methyl-1-oxa-4,9-diazaspiro[5.5]undecan-3-one], `CNCCC(OCc1cccc(N2CCN(C)c3nc(SC)ncc3C2=O)c1)C(C)C` (stereo not drawn) [Example 190, 9-methyl-6-(3-(((4-methyl-1-(methylamino)pentan-3-yl)oxy)methyl)phenyl)-2-(methylthio)-6,7,8,9-tetrahydro-5H-pyrimido[4,5-e][1,4]diazepin-5-one] is higher in Ki: 100 to 500 nM for the first, greater than 3000 nM for the second. The first binds more tightly here.

For `CSc1ncc2c(n1)N(C)CCN(c1cccc(CO[C@H](CCN(C)C(=O)OC(C)(C)C)c3cccs3)c1)C2=O` [Example 16, tert-butyl (R)-methyl(3-((3-(9-methyl-2-(methylthio)-5-oxo-5,7,8,9-tetrahydro-6H-pyrimido[4,5-e][1,4]diazepin-6-yl)benzyl)oxy)-3-(thiophen-2-yl)propyl) carbamate], the Ki was greater than 3000 nM.
